Measured values published in patent US12390532B2, “ALK protein regulator and anti-tumor application thereof” (SHANGHAITECH UNIVERSITY, priority 2019, dated 2025).
Where two headings read alike, the source gives them in different places.

Assays:
[1] = test system: 293T cells overexpressing EML4-ALK G1202R; test: Proliferation inhibition (IC50) in 293T cells overexpressing EML4-ALK G1202R; type: cell-based; details: Homo sapiens, HEK-293T; WST reagent, 72 hours; read-out: IC50 (half inhibitory concentration) in 293T cells overexpressing EML4-ALK G1202R
Procedure: (§1) The IC50 of the compound of the present disclosure was determined using Promega's Cell Titer Blue, Cell Titer GLO or commercially available WST reagents. The specific steps were as follows: the cells were seeded in a 96-well plate containing 100 microliters of RPMI medium containing serum at a number of 2000 cells/well. On the second day, the original drug and the compound of the present disclosure were serially diluted and added to the cells. After 72 hours of treatment with the compound of the present disclosure, the cell activity detection reagent was added to the culture medium for cell activity determination according to the instructions. The negative control was DMSO, and the positive control was the original drug, and the cells were treated in the same manner as the compound of the present disclosure. The growth inhibition of the compounds of the present disclosure on cells was plotted by Prism Graphpad software and the IC50 of the compounds of the present disclosure was counted from it.

[2] = target: T1, ALK protein (Homo sapiens, UniProt Q9UM73); test: Western blot of ALK protein degradation in SR cells; type: cell-based
T1 construct: We studied the total ALK protein in the anaplastic large cell lymphoma cell line SR; host or cells: SR cells (human anaplastic large cell lymphoma); the other entry of the earlier key: NPM1 (P06748, Nucleophosmin)
T1 sequence (Q9UM73 with tags, fused parts or gaps): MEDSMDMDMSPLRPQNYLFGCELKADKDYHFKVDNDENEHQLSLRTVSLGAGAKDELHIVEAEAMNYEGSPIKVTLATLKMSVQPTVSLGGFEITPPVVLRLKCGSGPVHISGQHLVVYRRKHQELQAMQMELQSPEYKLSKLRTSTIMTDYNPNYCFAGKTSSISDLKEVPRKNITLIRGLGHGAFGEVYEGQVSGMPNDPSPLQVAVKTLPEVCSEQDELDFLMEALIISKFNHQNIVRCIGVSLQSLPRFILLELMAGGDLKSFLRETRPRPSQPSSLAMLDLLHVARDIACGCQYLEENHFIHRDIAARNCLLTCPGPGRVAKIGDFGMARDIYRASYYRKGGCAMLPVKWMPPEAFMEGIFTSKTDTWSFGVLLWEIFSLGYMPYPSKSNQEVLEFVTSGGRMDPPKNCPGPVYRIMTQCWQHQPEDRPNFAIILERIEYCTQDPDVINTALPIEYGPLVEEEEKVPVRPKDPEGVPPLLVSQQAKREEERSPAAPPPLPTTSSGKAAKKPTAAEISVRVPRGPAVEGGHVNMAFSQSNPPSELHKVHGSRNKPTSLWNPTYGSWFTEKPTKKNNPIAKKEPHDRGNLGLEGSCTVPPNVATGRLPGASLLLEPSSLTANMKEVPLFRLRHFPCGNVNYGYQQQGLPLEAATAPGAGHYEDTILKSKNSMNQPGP
Procedure: (§2) The ALK gene rearrangement positive cell line used was SR cells (NPM-ALK, human anaplastic large cell lymphoma cells). MDA-MB231 was a triple-negative breast cancer cell. Both SR cells and MDA-MB231 cells were purchased from ATCC. The 293T cells overexpressing EML4-ALK G1202R were the cells constructed and verified for correct expression by this laboratory.
Tumor cells were seeded in a 24-well plate containing 1 ml of RPMI1640 medium at 1.5-3×10^5 cells/well. The next day, the cells were treated with different concentrations of drugs. After 16 hours, the supernatant was removed and the cells were washed with PBS. The cells were placed on ice and the cells were treated with RIPA protein lysate containing Halt protease and phosphatase inhibitors. The lysate was centrifuged at 10000RPM at 4° C. for 10 minutes, and the supernatant was collected. The same amount of protein was added to the 4×SDS sample solution, denatured at 95° C. for 5 minutes and freezen to −20° C., or protein electrophoresis was directly performed. GenScript, a 4-20% gradient protein precast gel was used as the electrophoresis gel. The electrophoresis tank and related components were purchased from Bio-rad, and the electrophoresis conditions were equal pressure 120 v for 2 hours. PVDF membrane was used for the transfer membrane, and the transfer membrane system was placed on ice with an equal current of 400 mA for one hour. After transferring the membrane, it was sealed with TBST+5% milk powder for half an hour. For the specific steps of immunoblotting, refer to the antibody instructions of Cell Signaling Technology.
DC50 (the drug concentration corresponding to protein degradation to 50%) calculation: according to the gray value of the Western blotting band after the drug is processed, the relationship curve between the drug concentration and the gray value is fitted by Prism GraphPad software to calculate the drug concentration range corresponding half of the gray value.
The cells with different concentrations (0, 10, 50, 100, 500 nM) of Brigatinib were first treated in SR cells for 16 hours. Western blotting was used on cell lysate to detect the effect of Brigatinib on the content of ALK protein (FIG. 2).

[3] = test system: SR cells (NPM-ALK, human anaplastic large cell lymphoma cells); test: Proliferation inhibition (IC50) in SR cells, CCK8 (WST) reagent; type: cell-based; details: 72 h
Procedure: The ALK gene rearrangement positive cell line used was SR cells (NPM-ALK, human anaplastic large cell lymphoma cells). MDA-MB231 was a triple-negative breast cancer cell. Both SR cells and MDA-MB231 cells were purchased from ATCC.
The tumor cell line used was daily cultured in a 37° C. incubator containing 5% CO2. The medium was RPMI1640 supplemented with 10% FCS and Penicillin-Streptomycin.
as §1
We conducted dose-dependent experiments on the designed and synthesized compounds of the present disclosure in SR cells. […] The cells were treated with different concentrations of compounds (starting at 10 μM, 3 times dilution factor, 10 concentrations). After 72 hours, the cells were detected using CCK8 reagent (WST).

[4] = test system: lung cancer patients; details: cited from earlier work
[5] = test system: triple-negative breast cancer MDA-MB-231 cell line; test: Proliferation inhibition (IC50) in MDA-MB-231 cell line; type: cell-based; details: Homo sapiens, WST reagent, 72 hours, read-out: IC50 (half inhibitory concentration) in MDA-MB-231 cell line
Procedure: as §2, §1

[6] = SR cells, WST reagent, 72 hours, read-out: IC50 (half inhibitory concentration), Brigatinib series in lymphoma cell lines
[7] = read-out: DC50 (half degradation concentration), Alectinib series in lymphoma cell lines, 16 hours, concentration range at half of the gray value
[8] = read-out: IC50 (half inhibitory concentration), Alectinib series in lymphoma cell lines, SR cells, WST reagent, 72 hours
[9] = 16 hours, concentration range at half of the gray value, read-out: DC50 (half degradation concentration), Brigatinib series in lymphoma cell lines

SMILES	IC50 [3, 6]	IC50 [5]	DC50 [2, 9]	also measured
COc1cc(N2CCC(N3CCN(C)CC3)CC2)ccc1Nc1ncc(Cl)c(Nc2ccccc2P(C)(C)=O)n1 [Brigatinib, reference compound]	6.9 nM	381 ± 41 nM		IC50 [1]: 473 ± 129 nM; degradation effect on ALK protein ([2]; 16 hours, concentrations up to 500 nM): no degradation effect; control rate [4]: 86%; effective rate [4]: 55%
COc1cc(N2CCC(N3CCN(CCCC#Cc4cccc5c4CN(C4CCC(=O)NC4=O)C5=O)CC3)CC2)ccc1Nc1ncc(Cl)c(Nc2ccccc2P(C)(C)=O)n1 (centres unmarked) [SIAIS262039, 3-(4-(5-(4-(1-(4-((5-chloro-4-((2-(dimethylphosphono)phenyl)amino)pyrimidin-2-yl)amino)-3-methoxyphenyl)piperidin-4-yl)piperazin-1-yl)pent-1-yn-1-yl)-1-oxoisoindolin-2-yl)piperidine-2,6-dione]	~1 nM	22.5 ± 2.26 nM		concentration from which a degradation effect on ALK protein is shown [2]: less than 0.005 nM
CCc1cc2c(cc1N1CCC(N3CCN(CCCC#Cc4cccc5c4CN(C4CCC(=O)NC4=O)C5=O)CC3)CC1)C(C)(C)c1[nH]c3cc(C#N)ccc3c1C2=O (centres unmarked) [SIAIS293001, 8-(4-(4-(5-(2-(2,6-dioxopiperidin-3-yl)-1-oxoisoindolin-4-yl)pent-4-yn-1-yl)piperazin-1-yl)piperidin-1-yl)-9-ethyl-6,6-dimethyl-11-oxo-6,11-dihydro-5H-benzo[b]carbazole-3-carbonitrile]				DC50 [2, 7]: 0.05 to 0.5 nM; IC50 [3, 8]: 2.7 nM
CCc1cc2c(cc1N1CCC(N3CCN(C(=O)COc4cccc5c4C(=O)N(C4CCC(=O)NC4=O)C5=O)CC3)CC1)C(C)(C)c1[nH]c3cc(C#N)ccc3c1C2=O (centres unmarked) [SIAIS293010, 8-(4-(4-(2-((2-(2,6-dioxopiperidin-3-yl)-1,3-dioxoisoindolin-4-yl)oxy)acetyl)piperazin-1-yl)piperidin-1-yl)-9-ethyl-6,6-dimethyl-11-oxo-6,11-dihydro-5H-benzo[b]carbazole-3-carbonitrile]				concentration from which a degradation effect on ALK protein is shown [2]: 0.5 nM; DC50 [2, 7]: 0.05 to 0.5 nM; IC50 [3, 8]: 2 nM
COc1cc(N2CCC(N3CCN(CCCCCCC#Cc4cccc5c4CN(C4CCC(=O)NC4=O)C5=O)CC3)CC2)ccc1Nc1ncc(Cl)c(Nc2ccccc2P(C)(C)=O)n1 (centres unmarked) [SIAIS293017, 3-(4-(8-(4-(1-(4-((5-chloro-4-((2-(dimethylphosphono)phenyl)amino)pyrimidin-2-yl)amino)-3-methoxyphenyl)piperidin-4-yl)piperazin-1-yl)oct-1-yn-1-yl)-1-oxoisoindolin-2-yl)piperidine-2,6-dione]	1.5 nM		0.5 to 5 nM	
COc1cc(N2CCC(N3CCN(CCCCCCCC#Cc4cccc5c4CN(C4CCC(=O)NC4=O)C5=O)CC3)CC2)ccc1Nc1ncc(Cl)c(Nc2ccccc2P(C)(C)=O)n1 (centres unmarked) [SIAIS293018, 3-(4-(9-(4-(1-(4-((5-chloro-4-((2-(dimethylphosphono)phenyl)amino)pyrimidin-2-yl)amino)-3-methoxyphenyl)piperidin-4-yl)piperazin-1-yl)non-1-yn-1-yl)-1-oxoisoindolin-2-yl)piperidine-2,6-dione]	2 nM		0.05 to 0.5 nM	concentration from which a degradation effect on ALK protein is shown [2]: 5 nM
COc1cc(N2CCC(NCCCC#Cc3cccc4c3CN(C3CCC(=O)NC3=O)C4=O)CC2)ccc1Nc1ncc(Cl)c(Nc2ccccc2P(C)(C)=O)n1 (centres unmarked) [SIAIS293093, 3-(4-(5-((1-(4-((5-chloro-4-((2-(dimethylphosphono)phenyl)amino)pyrimidin-2-yl)amino)-3-methoxyphenyl)piperidin-4-yl)amino)pent-1-yn-1-yl)-1-oxoisoindolin-2-yl)piperidine-2,6-dione]	1.3 nM	191 ± 106 nM		
COc1cc(N2CCC(N3CCN(Cc4ccc(CSc5cccc6c5CN(C5CCC(=O)NC5=O)C6=O)cc4)CC3)CC2)ccc1Nc1ncc(Cl)c(Nc2ccccc2P(C)(C)=O)n1 (centres unmarked) [SIAIS293189, 3-(4-((4-((4-(1-(4-((5-chloro-4-((2-(dimethylphosphono)phenyl)amino)pyrimidin-2-yl)amino)-3-methoxyphenyl)piperidin-4-yl)piperazin-1-yl)methyl)benzyl)thio)-1-oxoisoindolin-2-yl)piperidine-2,6-dione]	0.1 ± 0.02 nM		0.05 to 0.5 nM	IC50 [1]: 99.5 ± 8.62 nM
COc1cc(N2CCC(N3CCN(CCCCCc4cccc5c4CN(C4CCC(=O)NC4=O)C5=O)CC3)CC2)ccc1Nc1ncc(Cl)c(Nc2ccccc2P(C)(C)=O)n1 (centres unmarked) [SIAIS352008, 3-(4-(5-(4-(1-(4-((5-chloro-4-((2-(dimethylphosphono)phenyl)amino)pyrimidin-2-yl)amino)-3-methoxyphenyl)piperidin-4-yl)piperazin-1-yl)pentyl)-1-oxoisoindolin-2-yl)piperidine-2,6-dione]	2.1 ± 1.2 nM	4.5 ± 0.5 nM	0.05 to 0.5 nM	
COc1cc(N2CCC(N3CCN(CCSc4cccc5c4CN(C4CCC(=O)NC4=O)C5=O)CC3)CC2)ccc1Nc1ncc(Cl)c(Nc2ccccc2P(C)(C)=O)n1 (centres unmarked) [SIAIS352011, 3-(4-((2-(4-(1-(4-((5-chloro-4-((2-(dimethylphosphono)phenyl)amino)pyrimidin-2-yl)amino)-3-methoxyphenyl)piperidin-4-yl)piperazin-1-yl)ethyl)thio)-1-oxoisoindolin-2-yl)piperidine-2,6-dione]	1.2 ± 0.3 nM	4.9 ± 1.04 nM	0.5 to 5 nM	
COc1cc(N2CCC(N3CCN(CCCCc4cccc5c4CN(C4CCC(=O)NC4=O)C5=O)CC3)CC2)ccc1Nc1ncc(Cl)c(Nc2ccccc2P(C)(C)=O)n1 (centres unmarked) [SIAIS352059, 3-(4-(4-(4-(1-(4-((5-chloro-4-((2-(dimethylphosphono)phenyl)amino)pyrimidin-2-yl)amino)-3-methoxyphenyl)piperidin-4-yl)piperazin-1-yl)butyl)-1-oxoisoindolin-2-yl)piperidine-2,6-dione]	1.1 ± 0.3 nM	75 ± 58 nM		
